From patent US8722578B2, “Spiroheterocyclic pyrrolidinedione herbicidal compositions” (Syngenta Participations AG, priority 2008, dated 2014)

Experiments:
[1] = tested on: Alopecurus myosuroides (ALOMY); assay: Example A pre-emergence herbicidal activity, glasshouse pot test; type: in vivo; settings: 480 h, rate 250 g/ha, evaluated 20 days after spraying, read-out: ALOMY pre-emergence activity (100=total damage to plant; 0=no damage to plant)
Protocol: (§1) Monocotyledonous and dicotyledonous test plants are sown in standard soil in pots. After cultivation for one day (pre-emergence) or after 10 days cultivation (post-emergence) under controlled conditions in a glasshouse, the plants are sprayed with an aqueous spray solution derived from the formulation of the technical active ingredient in 0.6 ml acetone and 45 ml formulation solution containing 10.6% Emulsogen EL (Registry number 61791-12-6), 42.2% N-methylpyrrolidone, 42.2% dipropylene glycol monomethyl ether (Registry number 34590-94-8) and 0.2% X-77 (Registry number 11097-66-8). The test plants are then grown in a greenhouse under optimum conditions until, 15 days later for post-emergence and 20 days for pre-emergence, the test is evaluated (100=total damage to plant; 0=no damage to plant). Test Plants: Alopecurus myosuroides (ALOMY), Avena fatua (AVEFA), Lolium perenne (LOLPE), Setaria faberi (SETFA), Digitaria sanguinalis (DIGSA), Echinochloa crus-galli (ECHCG) Pre-Emergence Activity

Avena fatua (AVEFA) [2] = assay: as above; type: in vivo; settings: 480 h, rate 250 g/ha, evaluated 20 days after spraying, read-out: AVEFA pre-emergence activity (100=total damage to plant; 0=no damage to plant)
Protocol: as §1

[3] = tested on: Digitaria sanguinalis (DIGSA); assay: as above; type: in vivo; settings: 480 h, rate 250 g/ha, evaluated 20 days after spraying, read-out: DIGSA pre-emergence activity (100=total damage to plant; 0=no damage to plant)
Protocol: as §1

[4] = tested on: Echinochloa crus-galli (ECHCG); assay: as above; type: in vivo; settings: 480 h, rate 250 g/ha, evaluated 20 days after spraying, read-out: ECHOG pre-emergence activity (100=total damage to plant; 0=no damage to plant)
Protocol: as §1

Lolium perenne (LOLPE) [5] = assay: as above; type: in vivo; settings: 480 h, rate 250 g/ha, evaluated 20 days after spraying, read-out: LOLPE pre-emergence activity (100=total damage to plant; 0=no damage to plant)
Protocol: as §1

Setaria faberi (SETFA) [6] = assay: as above; type: in vivo; settings: 480 h, rate 250 g/ha, evaluated 20 days after spraying, read-out: SETFA pre-emergence activity (100=total damage to plant; 0=no damage to plant)
Protocol: as §1

[7] = tested on: Alopecurus myosuroides (ALOMY); assay: Example A post-emergence herbicidal activity, glasshouse pot test; type: in vivo; settings: 360 h, rate 125 g/ha, evaluated 15 days after spraying, read-out: ALOMY post-emergence activity (100=total damage to plant; 0=no damage to plant)
Protocol: as §1, with “Post-Emergence” for “Pre-Emergence”

Avena fatua (AVEFA) [8] = assay: as above; type: in vivo; settings: 360 h, rate 125 g/ha, evaluated 15 days after spraying, read-out: AVEFA post-emergence activity (100=total damage to plant; 0=no damage to plant)
Protocol: as §1, with “Post-Emergence” for “Pre-Emergence”

[9] = tested on: Digitaria sanguinalis (DIGSA); assay: as above; type: in vivo; settings: 360 h, rate 125 g/ha, evaluated 15 days after spraying, read-out: DIGSA post-emergence activity (100=total damage to plant; 0=no damage to plant)
Protocol: as §1, with “Post-Emergence” for “Pre-Emergence”

[10] = tested on: Echinochloa crus-galli (ECHCG); assay: as above; type: in vivo; settings: 360 h, rate 125 g/ha, evaluated 15 days after spraying, read-out: ECHOG post-emergence activity (100=total damage to plant; 0=no damage to plant)
Protocol: as §1, with “Post-Emergence” for “Pre-Emergence”

Lolium perenne (LOLPE) [11] = assay: as above; type: in vivo; settings: 360 h, rate 125 g/ha, evaluated 15 days after spraying, read-out: LOLPE post-emergence activity (100=total damage to plant; 0=no damage to plant)
Protocol: as §1, with “Post-Emergence” for “Pre-Emergence”

Setaria faberi (SETFA) [12] = assay: as above; type: in vivo; settings: 360 h, rate 125 g/ha, evaluated 15 days after spraying, read-out: SETFA post-emergence activity (100=total damage to plant; 0=no damage to plant)
Protocol: as §1, with “Post-Emergence” for “Pre-Emergence”

[13] = tested on: Alopecurus myosuroides (ALOMY); assay: Example B pre-emergence herbicidal activity, glasshouse pot test; type: in vivo; settings: 312 h, first table (headed Post-Emergence, taken as pre-emergence), rate 250 g/ha, evaluated after 13 days, read-out: ALOMY activity (100=total damage to plant; 0=no damage to plant)
Procedure, shortened: (§2)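 Pot-grown plants were sprayed 1 day after sowing (pre-emergence) or after 8 days (post-emergence) with compound in acetone/water 50:50 with 0.5% Tween 20, in glasshouse at 24/16 °C, 14 h light, 65% humidity. Damage rated 0–100 (100 = total damage) 13 days after treatment.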

Avena fatua (AVEFA) [14] = assay: as above; type: in vivo; settings: 312 h, first table (headed Post-Emergence, taken as pre-emergence), rate 250 g/ha, evaluated after 13 days, read-out: AVEFA activity (100=total damage to plant; 0=no damage to plant)
Procedure, shortened: as §2

[15] = tested on: Echinochloa crus-galli (ECHCG); assay: as above; type: in vivo; settings: 312 h, first table (headed Post-Emergence, taken as pre-emergence), rate 250 g/ha, evaluated after 13 days, read-out: ECHCG activity (100=total damage to plant; 0=no damage to plant)
Procedure, shortened: as §2

Setaria faberi (SETFA) [16] = assay: as above; type: in vivo; settings: 312 h, first table (headed Post-Emergence, taken as pre-emergence), rate 250 g/ha, evaluated after 13 days, read-out: SETFA activity (100=total damage to plant; 0=no damage to plant)
Procedure, shortened: as §2

[17] = tested on: Alopecurus myosuroides (ALOMY); assay: Example B post-emergence herbicidal activity, glasshouse pot test; type: in vivo; settings: 312 h, rate 250 g/ha, evaluated after 13 days, read-out: ALOMY post-emergence activity (100=total damage to plant; 0=no damage to plant)
Procedure, shortened: as §2

Avena fatua (AVEFA) [18] = assay: as above; type: in vivo; settings: 312 h, rate 250 g/ha, evaluated after 13 days, read-out: AVEFA post-emergence activity (100=total damage to plant; 0=no damage to plant)
Procedure, shortened: as §2

[19] = tested on: Echinochloa crus-galli (ECHCG); assay: as above; type: in vivo; settings: 312 h, rate 250 g/ha, evaluated after 13 days, read-out: ECHCG post-emergence activity (100=total damage to plant; 0=no damage to plant)
Procedure, shortened: as §2

Setaria faberi (SETFA) [20] = assay: as above; type: in vivo; settings: 312 h, rate 250 g/ha, evaluated after 13 days, read-out: SETFA post-emergence activity (100=total damage to plant; 0=no damage to plant)
Procedure, shortened: as §2

melting point: 255 to 257 °C
Compound: CON1CCC2(CC1)NC(=O)C(c1c(C)cc(-c3ccc(Cl)cc3)cc1C)C2=O (stereo not drawn) [Compound T23]
pest or weed control at 250 g/ha [1]: 40%
pest or weed control at 250 g/ha (Avena fatua (AVEFA) [2]): 50%
pest or weed control at 250 g/ha [3]: 100%
pest or weed control at 250 g/ha [4]: 100%
pest or weed control at 250 g/ha (Lolium perenne (LOLPE) [5]): 40%
pest or weed control at 250 g/ha (Setaria faberi (SETFA) [6]): 100%
pest or weed control at 125 g/ha [7]: 100%
pest or weed control at 125 g/ha (Avena fatua (AVEFA) [8]): 100%
pest or weed control at 125 g/ha [9]: 100%
pest or weed control at 125 g/ha [10]: 100%
pest or weed control at 125 g/ha (Lolium perenne (LOLPE) [11]): 80%
pest or weed control at 125 g/ha (Setaria faberi (SETFA) [12]): 100%
pest or weed control at 250 g/ha [13]: 70%
pest or weed control at 250 g/ha (Avena fatua (AVEFA) [14]): 90%
pest or weed control at 250 g/ha [15]: 90%
pest or weed control at 250 g/ha (Setaria faberi (SETFA) [16]): 100%
pest or weed control at 250 g/ha [17]: 100%
pest or weed control at 250 g/ha (Avena fatua (AVEFA) [18]): 100%
pest or weed control at 250 g/ha [19]: 100%
pest or weed control at 250 g/ha (Setaria faberi (SETFA) [20]): 100%
